Data on ten compounds can be found in article PMC10813862, “Gαi2 Protein Inhibition Blocks Chemotherapy- and Anti-Androgen-Induced Prostate Cancer Cell Migration” (Cancers, 2024).

Assay [1] concerns MDA-MB-231 cells. The experiment in a line: MTS viability, MDA-MB-231 cells. Format: cell-based. The following applies: Homo sapiens, 72 h, n=3. As to the method:
(§1) Figure S1A. Effects of compounds 3- 7, 10, 12, 13 and 15 on the viability of LNCaP,
(§2) MDA-MD-231, MCF-7 and Vero cells. The cells are incubated with the drugs for 72 h
(§3) and viability evaluated with MTS. NI = IC50 greater than 100 μM. n=3
(§4) Compound LNCaP (µM) MDA-MB-231 (µM) MCF-7 (µM) Vero (µM)

The test system of assay [2] is MCF-7 cells. The assay is described as follows: MTS viability, MCF-7 cells. Format: cell-based. The following applies: Homo sapiens, MCF7, 72 h, n=3. As to the method: as §1, §2, §3, §4
The test system of assay [3] is PC3 cells. The assay is described as follows: transwell migration assay, PC3 cells. The assay is classed as cell-based, human. The following applies: for effect on PC3 cell migration (migration index): compound alone, concentration range 0.1 to 100 μM, 5 h, compared with 14. As to the method:
(§5) In vitro transwell migration assays were conducted as described previously. Briefly, the outside of the transwell inserts (BD Biosciences, San Jose, CA, USA) were coated with 50 µL of rat tail collagen (50 μg/mL; BD Biosciences, San Jose, CA, USA) overnight at 4 °C. The next day, 50 μL of the aforementioned rat tail collagen was added for 1 h at room temperature into the transwell inserts to coat the inside of the membranes. DU145, PC3 and LNCaP cells were trypsinized and suspended at the appropriate density (3 × 10^5 cells/insert for DU145 and PC3, and 5 × 10^5 cells/insert for LNCaP) in MEM or RPMI containing 0.2% BSA (Sigma-Aldrich, St. Louis, MO, USA). Chemoattractant solution, used as the positive control, was made by diluting the epidermal growth factor (EGF) (10 ng/mL) into MEM (PC3 and DU145) or RPMI (LNCaP) supplemented with 0.2% BSA. Media containing 0.2% BSA served as a control. Control and EGF solutions (400 μL) were added into the wells of a 24-well plate. Aliquots of 100 μL of cell suspensions, treated with or without the different compounds at several concentrations, were loaded into the transwell inserts, and the plates were incubated at 37 °C for 5 h (DU145 and PC3) or 24 h (LNCaP). The cells inside the transwell inserts were removed by cotton swabs, and the cleaned inserts were fixed with 350 μL of 4% paraformaldehyde (pH 7.5) for 20 min at room temperature. Cells that had migrated to the outside of the transwell insert membrane were stained with 3 ng/mL of DAPI solution (Thermo Fisher Scientific, Eugene, OR, USA), and images of five non-overlapping fields were captured using an Axiovert 200M, Carl Zeiss (Thornwood, NY, USA) microscope. The number of stained nuclei were determined with automatic counting using image analysis software (ZEN 2012 (blue edition, Version 1.1.1.0); Carl Zeiss Microscopy GmbH, Oberkochen, Germany). The results were expressed as a migration index defined as the average number of cells per field for test substance/the average number of cells per field for the medium control.

Assay [4] concerns Vero cells. The assay is described as follows: MTS viability, Vero cells. The assay is classed as cell-based. As to conditions: Chlorocebus sabaeus, 72 h, n=3. As to the method:
as §1, §2, §3, §4

Assay [5] concerns LNCaP cells. The assay is described as follows: MTS viability, LNCaP cells. Format: cell-based. The following applies: Homo sapiens, 72 h, n=3. Here is the method:
as §1, §2, §3, §4

Assay [6] concerns LNCaP cells. The assay is described as follows: transwell migration assay, LNCaP cells. The assay is classed as cell-based, human. As to conditions: 24 h; for effect on LNCaP cell migration (migration index): drug alone at several concentrations; for concentration of maximum induction of LNCaP cell migration: drug alone. Here is the method: as §5
In assay [7] the test system is Gαi2 protein. The experiment in a line: Western blot of Gαi2 protein levels in LNCaP cells. The following applies: 24 h; enzalutamide 2.5 μM, bicalutamide 2.5 μM, SBI-I-19 2 μM, SAHA 4 μM. Format: cell-based, human. Here is the method:
Docetaxel, a taxoid anti-cancer agent, was purchased from Millipore-Sigma and dissolved in DMSO at a starting concentration of 100 μM. SAHA, a commercially available FDA-approved HDACi, was purchased from Sigma-Aldrich (St. Louis, MO, USA) and dissolved in DMSO at a starting concentration of 100 mM. SBI-I-19, an HDAC inhibitor conjugated with anti-androgen, was dissolved in DMSO at a starting concentration of 50 mM. The anti-androgen drugs enzalutamide and bicalutamide were purchased from Selleckchem (Houston, TX, USA) and Sigma-Aldrich, respectively. Anti-androgens were prepared at a stock concentration of 100 mM (enzalutamide) and 10 mM (bicalutamide) in DMSO. The Gαi2 inhibitor (compound 14) was diluted in DMSO at a stock concentration of 100 mM, as previously described. All drugs used in the study were then diluted in the culture media to the final concentrations used in various assays. To determine the effects of specific treatments on the levels of Gαi2 protein, LNCaP and PC3 cells (10^6 cells) were cultured overnight in 10 cm^2 culture dishes. The cells were then treated with anti-androgens and other agents for 24 h and the total cell lysates were collected for Western blot analyses.
Western blot analyses were performed as described previously. Briefly, cell lysates were mixed with Laemmeli’s buffer (62.5 mM Tris, pH 6.8, 2% sodium dodecyl sulfate, 5% β–mercaptoethanol and 10% glycerol). Samples (30–35 µg proteins) were separated on 10% SDS-PAGE gels and transferred to polyvinylidene difluoride (PVDF) membranes (Millipore Corp., Bedford, MA, USA). After blocking the membranes with 5% fat-free milk in TBST (50 mM Tris, pH 7.5, containing 0.15 M NaCl, and 0.05% Tween 20) for 1 h at room temperature, the membranes were incubated with specific primary antibodies at appropriate dilutions (1:5000 for Gαi2; 1:3000 for α-tubulin) overnight at 4 °C. After washing, the blots were incubated with appropriate secondary antibodies. The blots were then developed in Millipore Luminata Forte (EMD Millipore) for 5 min and visualized using a BioRad ChemiDoc Imaging System, according to the manufacturer’s instructions. The density of specific protein bands was determined using ImageJ 1.53 K image analyses software.
A general note: In western blotting, separated proteins are transferred to a membrane and probed.

In assay [8] the test system is DU145 cells. The experiment in a line: transwell migration assay, DU145 cells. Format: cell-based, human. The following applies: drug alone, AR-negative cells. Here is the method: as §5

The structures appear in SMILES notation. Where “and” joins values, the source holds several entries; their conditions need not be identical. Equal entries are not always repeated.

As for `Cn1c(/C=N/c2ccc(O)cc2)cc2ccccc21` [Compound 3], the half-maximal inhibitory concentration (IC50) in assay [1], in assay [2], in assay [4] and in assay [5] was more than 100 µM each time. Further, in assay [3], the “effect on PC3 cell migration (migration index)” value is given as “concentration dependent reduction of PC3 cell migration, but less efficiently relative to 14”.
With `CSc1ccc(/N=C(\C)c2cc3ccccc3n2C)cc1` [Compound 4], the IC50 in assay [1], in assay [2], in assay [4] and in assay [5] was more than 100 µM each time. The “effect on PC3 cell migration (migration index)” value in assay [3] is listed as “concentration dependent reduction of PC3 cell migration, but less efficiently relative to 14”.
With `Cn1c(CNc2ccc(O)cc2)cc2ccccc21` [Compound 5], the IC50 in assay [1], in assay [2], in assay [4] and in assay [5] was more than 100 µM each time. In assay [3], the “effect on PC3 cell migration (migration index)” value is reported as “comparable potency”.
Turning to `CC(Oc1ccc(S(C)(=O)=O)cc1)c1cc2ccccc2n1C` (stereo not shown) [Compound 12], the IC50 in assay [1], in assay [2], in assay [4] and in assay [5] was more than 100 µM throughout. The “effect on PC3 cell migration (migration index)” value in assay [3] is listed as “less effective”.
As to `CC(Oc1ccc([S+](C)[O-])cc1)c1cc2ccccc2n1C` (stereo not shown) [Compound 13], the IC50 in assay [1], in assay [2], in assay [4] and in assay [5] was more than 100 µM each time. Also, the “effect on PC3 cell migration (migration index)” value in assay [3] is “less effective”.
With `CC(Oc1ccc(O)cc1)c1cc2ccccc2n1C` (stereo not shown) [Compound 15], the IC50 in assay [1], in assay [2], in assay [4] and in assay [5] was more than 100 µM each time. Also, in assay [3], the “effect on PC3 cell migration (migration index)” value is “did not inhibit the migration of PC3 cells at the maximum concentration tested”.
Take `O=C(CCCCCCC(=O)Nc1ccccc1)NO` [SAHA]: in assay [6], the “effect on LNCaP cell migration (migration index)” value is listed as “induced a significant dose-dependent increase in cell migration”; the “concentration of maximum induction of LNCaP cell migration” value (“concentration” below) was 0.5 µM and 1 µM. The “effect of chemotherapeutic drugs on PC3 cell migration” value in assay [3] (drug alone, AR-negative cells) was “induced an increase in cell migration”. Further, the “levels of Gαi2 protein in LNCaP cells” value in assay [7] is given as “induced a reduction in the levels of Gαi2 protein”. The “effect of chemotherapeutic drugs on DU145 cell migration” value (“effect … on DU145 cell migration” for short) in assay [8] is reported as “increased cell migration”.
For `CC1(C)C(=O)N(c2ccc(C#N)c(C(F)(F)F)c2)C(=O)N1Cc1ccc(-c2cn(CCCCC(=O)NO)nn2)cc1` [SBI-I-19], in assay [6], the “effect on LNCaP cell migration (migration index)” value is listed as “induced a significant dose-dependent increase in cell migration”; the “concentration” value was 1 µM and 2 µM. Besides, in assay [7], the “levels of Gαi2 protein in LNCaP cells” value is on record as “increased levels of Gαi2 protein”. Also, in assay [8], the “effect … on DU145 cell migration” value is listed as “increased cell migration”.
As for `CC(O)(CS(=O)(=O)c1ccc(F)cc1)C(=O)Nc1ccc(C#N)c(C(F)(F)F)c1` (stereo not shown) [bicalutamide], in assay [6], the “effect on LNCaP cell migration (migration index)” value is listed as “induced a dose-dependent increase in cell migration” and the “concentration” value stood at 2.5 µM. Besides, in assay [7], the “levels of Gαi2 protein in LNCaP cells” value is reported as “increased levels of Gαi2 protein”.
Consider `CNC(=O)c1ccc(N2C(=S)N(c3ccc(C#N)c(C(F)(F)F)c3)C(=O)C2(C)C)cc1F` [enzalutamide], for which, in assay [6], the “effect on LNCaP cell migration (migration index)” value is given as “induced a dose-dependent increase in cell migration” and the “concentration” value was 2.5 µM. In assay [7], the “levels of Gαi2 protein in LNCaP cells” value is on record as “increased levels of Gαi2 protein”. The “effect … on DU145 cell migration” value in assay [8] is reported as “increased cell migration”.

A word on the IC50: it is the concentration at which inhibition is half-maximal.
